System: 519858-162-T-J1-PDC complex spheroid viability
Experiment: Anticancer human tumor 519858-162-T-J1-PDC patient-derived colon adenocarcinoma cell line growth inhibition [GQUAD]
Conditions: for IC50: curve of first compound; for viability, T/C: stronger effect = lower value; active means viability on the fitted dose curve at most 10% of control; inactive means the rest
In short: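 Multi-cell-type spheroids of tumor cells with HUVEC and mesenchymal stem cells, treated with drug combinations. Concentrations descend in half-log steps from near clinical Cmax, or from 10 microM where Cmax is unknown; viability read-out.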

[1] = second compound 0.0316 µM, first compound 0.0316 µM
[2] = second compound 0.0316 µM, first compound 0.1 µM
[3] = second compound 0.0316 µM, first compound 0.316 µM
[4] = second compound 0.0316 µM, first compound 1 µM
[5] = second compound 0.0316 µM, first compound 3.16 µM
[6] = second compound 0.0316 µM, first compound 10 µM
[7] = second compound 0.1 µM, first compound 0.0316 µM
[8] = second compound 0.1 µM, first compound 0.1 µM
[9] = second compound 0.1 µM, first compound 0.316 µM
[10] = second compound 0.1 µM, first compound 1 µM
[11] = second compound 0.1 µM, first compound 3.16 µM
[12] = second compound 0.1 µM, first compound 10 µM
[13] = second compound 0.316 µM, first compound 0.0316 µM
[14] = second compound 0.316 µM, first compound 0.1 µM
[15] = second compound 0.316 µM, first compound 0.316 µM
[16] = second compound 0.316 µM, first compound 1 µM
[17] = second compound 0.316 µM, first compound 3.16 µM
[18] = second compound 0.316 µM, first compound 10 µM
[19] = second compound 1 µM, first compound 0.0316 µM
[20] = second compound 1 µM, first compound 0.1 µM
[21] = second compound 1 µM, first compound 0.316 µM
[22] = second compound 1 µM, first compound 1 µM
[23] = second compound 1 µM, first compound 3.16 µM
[24] = second compound 1 µM, first compound 10 µM
[25] = second compound 3.16 µM, first compound 0.0316 µM
[26] = second compound 3.16 µM, first compound 0.1 µM
[27] = second compound 3.16 µM, first compound 0.316 µM
[28] = second compound 3.16 µM, first compound 1 µM
[29] = second compound 3.16 µM, first compound 3.16 µM
[30] = second compound 3.16 µM, first compound 10 µM
[31] = second compound 10 µM, first compound 0.0316 µM
[32] = second compound 10 µM, first compound 0.1 µM
[33] = second compound 10 µM, first compound 0.316 µM
[34] = second compound 10 µM, first compound 1 µM
[35] = second compound 10 µM, first compound 3.16 µM
[36] = second compound 10 µM, first compound 10 µM
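Further: spheroids exposed to compounds for 7 days.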
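Wherever viability, T/C is given: 100% = DMSO vehicle control viability.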

COc1ncnc(C2CC2)c1-c1ncc2cnn(Cc3ccc(-c4nc(C(F)(F)F)cn4C(C)C)cc3)c2n1 + Cc1cnc(CNC(=O)c2c(=O)c3ccc(N4CCCN(C)CC4)nc3n3c2sc2ccccc23)cn1
8.6 µM: IC50 (second compound 0.316 µM)
inactive: viability, T/C [1] 87.7% | viability, T/C [2] 65.6% | viability, T/C [3] 88.7% | viability, T/C [4] 79.3% | viability, T/C [5] 90.6% | viability, T/C [6] 67.6% | viability, T/C [7] 85.6% | viability, T/C [8] 74.8% | viability, T/C [9] 97.7% | viability, T/C [10] 77.9% | viability, T/C [11] 97.2% | viability, T/C [12] 54% | viability, T/C [13] 72.4% | viability, T/C [14] 54.8% | viability, T/C [15] 64.1% | viability, T/C [16] 67.5% | viability, T/C [17] 45.5% | viability, T/C [18] 50.4% | viability, T/C [19] 55.7% | viability, T/C [20] 54.1% | viability, T/C [21] 47.6% | viability, T/C [22] 47.8% | viability, T/C [23] 49.1% | viability, T/C [24] 53.3% | viability, T/C [25] 49.2% | viability, T/C [26] 40.1% | viability, T/C [27] 46% | viability, T/C [28] 30.3% | viability, T/C [29] 63.7% | viability, T/C [30] 48.6% | viability, T/C [31] 35.8% | viability, T/C [32] 55.3% | viability, T/C [33] 48.5% | viability, T/C [34] 26.8% | viability, T/C [35] 47.6% | viability, T/C [36] 90.8%
0.809 µM: IC50 (second compound 1 µM)
< 0.0316 µM: IC50 (second compound 3.16 µM) | IC50 (second compound 10 µM)
> 10 µM: IC50 (second compound 0.0316 µM) | IC50 (second compound 0.1 µM)

CC1COCCN1c1cc(C2(S(C)(=N)=O)CC2)nc(-c2ccnc3[nH]ccc23)n1 (stereo unspecified) + CN(C)c1ccc(Nc2c3ccc(NC(=O)CCN4CCCC4)cc3nc3cc(NC(=O)CCN4CCCC4)ccc23)cc1
> 10 µM: IC50 (second compound 0.0316 µM) | IC50 (second compound 0.1 µM) | IC50 (second compound 0.316 µM) | IC50 (second compound 1 µM) | IC50 (second compound 3.16 µM) | IC50 (second compound 10 µM)
inactive: viability, T/C [1] 115% | viability, T/C [2] 102% | viability, T/C [3] 119% | viability, T/C [4] 115% | viability, T/C [5] 98.3% | viability, T/C [6] 77.7% | viability, T/C [7] 133% | viability, T/C [8] 124% | viability, T/C [9] 125% | viability, T/C [10] 110% | viability, T/C [11] 94.2% | viability, T/C [12] 70% | viability, T/C [13] 123% | viability, T/C [14] 108% | viability, T/C [15] 81.1% | viability, T/C [16] 79.7% | viability, T/C [17] 91.1% | viability, T/C [18] 100% | viability, T/C [19] 88.2% | viability, T/C [20] 88.3% | viability, T/C [21] 90.8% | viability, T/C [22] 105% | viability, T/C [23] 86.5% | viability, T/C [24] 100% | viability, T/C [25] 93.3% | viability, T/C [26] 60.1% | viability, T/C [27] 93.9% | viability, T/C [28] 111% | viability, T/C [29] 84.8% | viability, T/C [30] 66.1% | viability, T/C [31] 79.3% | viability, T/C [32] 62.7% | viability, T/C [33] 82.8% | viability, T/C [34] 99.5% | viability, T/C [35] 82.5% | viability, T/C [36] 84.8%

O=c1[nH]cc(F)c(=O)[nH]1 + Cc1[nH]c2ccc(F)cc2c1-c1nc2c3cccnc3c3ncccc3c2[nH]1
inactive: viability, T/C [1] 138% | viability, T/C [2] 85.8% | viability, T/C [3] 80.8% | viability, T/C [4] 98.3% | viability, T/C [5] 81.7% | viability, T/C [6] 87.3% | viability, T/C [7] 116% | viability, T/C [8] 103% | viability, T/C [9] 94% | viability, T/C [10] 98.6% | viability, T/C [11] 70.6% | viability, T/C [12] 84.9% | viability, T/C [13] 86% | viability, T/C [14] 103% | viability, T/C [15] 87.4% | viability, T/C [16] 83.7% | viability, T/C [17] 86.5% | viability, T/C [18] 74.9% | viability, T/C [19] 101% | viability, T/C [20] 83.2% | viability, T/C [21] 75.8% | viability, T/C [22] 65.7% | viability, T/C [23] 60.6% | viability, T/C [24] 89.5% | viability, T/C [25] 57% | viability, T/C [26] 69% | viability, T/C [27] 65.7% | viability, T/C [28] 75.5% | viability, T/C [29] 71.3% | viability, T/C [30] 63% | viability, T/C [31] 81% | viability, T/C [32] 78.1% | viability, T/C [33] 59.6% | viability, T/C [34] 71.9% | viability, T/C [35] 83.1% | viability, T/C [36] 55.6%
> 10 µM: IC50 (second compound 0.0316 µM) | IC50 (second compound 0.1 µM) | IC50 (second compound 0.316 µM) | IC50 (second compound 1 µM) | IC50 (second compound 3.16 µM) | IC50 (second compound 10 µM)

— PubChem BioAssay AID2060507 (Molecular Pharmacology Branch, DTP, NCI, 2025)
